pIC50: −log10 of the molar value.

The target in one assay is Mtb Lpd (Mycobacterium tuberculosis (strain ATCC 25618 / H37Rv), UniProt P9WHH9). Format: biochemical. The note with it: 30 min preincubation; read-out: LPD IC50 (μM) w/ 30 min preincubation.
Regarding `Cc1cc(S(=O)(=O)N(C)CC(=O)Nc2ccc(N3CCOCC3)c(Cl)c2)c2[nH]ncc2c1` [Example 126], the IC50 is 0.015 µM.

Still in this assay, the particulars now being: read-out: LPD IC50.
Usually pIC50 stands for the negative decadic logarithm of the IC50, by convention in mol/L. Turning to `Cc1cc(S(=O)(=O)N2CC[C@H]2C(=O)N[C@H]2CCCOC2)c2[nH]ncc2c1` [Example 141, (2S)-1-[(5-methyl-1H-indazol-7-yl)sulfonyl]-N-[(3S)-tetrahydropyran-3-yl]azetidine-2-carboxamide], the negative logarithm of the IC50 (pIC50) was 6.09.
Turning to `Cc1cc(S(=O)(=O)N(C)CC(=O)NC2CCN(C)CC2)c2n[nH]cc2c1` [Example 53], the pIC50 is 6.02.
On the same count and under the same terms, in the case of `C#CCNC(=O)CN(C)S(=O)(=O)c1cc(C)cc2cn[nH]c12` [Example 107] it was 7.33; in that of `Cc1cc(S(=O)(=O)N(C)CC(=O)NC2CCc3cnccc32)c2n[nH]cc2c1` (centres unmarked) [Example 114], 7.02.
On the same count and under the same terms, in the case of `Cc1cc(S(=O)(=O)N2CCC[C@@H](C(=O)Nc3ccn(C)c(=O)c3)C2)c2[nH]ncc2c1` [Example 96, (R)-1-((5-methyl-1H-indazol-7-yl)sulfonyl)-N-(1-methyl-2-oxo-1,2-dihydropyridin-4-yl)piperidine-3-carboxamide] it was 6.95; in that of `CCCc1cc(S(=O)(=O)N(C)CC(=O)Nc2ccn(C)c(=O)c2)c2[nH]ncc2c1` [Example 118], 7.15; in that of `Cc1cc(S(=O)(=O)N(C)CC(=O)NCc2ccccc2C)c2[nH]ncc2c1` [Example 109], 6.97.
On the same count and under the same terms, then `Cc1cc(S(=O)(=O)N2CCC(C(=O)Nc3ccn(C)c(=O)c3)C2)c2[nH]ncc2c1` (centres unmarked) [Example 213], with 5.72.
With `Cc1cc(S(=O)(=O)N(C)CC(=O)Nc2ccn(C)c(=O)c2)c2[nH]c(C)cc2c1` [Example 134], the pIC50 was 6.02.
The same measure, in the same setting: then `Cc1cc(S(=O)(=O)N(CC(=O)Nc2ccn(C)c(=O)c2)C2COC2)c2[nH]ncc2c1` [Example 38, N-(1-methyl-2-oxo-1,2-dihydropyridin-4-yl)-2-((5-methyl-N-(oxetan-3-yl)-1H-indazole)-7-sulfonamido)acetamide], with 6.38; and `Cc1ccc(CNC(=O)CN(C)S(=O)(=O)c2cc(C)cc3cn[nH]c23)cc1` [Example 111], with 7.28.
Still for that read-out and setting: then `Cc1cc(S(=O)(=O)N(C)CC(=O)Nc2ccn(C)c(=O)c2)c2nn[nH]c2c1` [Example 132, 2-((N,5-dimethyl-1H-benzo[d][1,2,3]triazole)-7-sulfonamido)-N-(1-methyl-2-oxo-1,2-dihydropyridin-4-yl)acetamide], with 6.41; and `Cc1cc(S(=O)(=O)N(C)CC(=O)Nc2ccc3c(c2)OCCN3C(C)C)c2n[nH]cc2c1` [Example 157], with 7.85; and `Cc1cc(S(=O)(=O)N(C)CC(=O)Nc2ccn(C)c(=O)c2)c2[nH]nc(C#N)c2c1` [Example 182, 2-((3-cyano-N,5-dimethyl-1H-indazole)-7-sulfonamido)-N-(1-methyl-2-oxo-1,2-dihydropyridin-4-yl)acetamide], with 6.14.
The same measure, in the same setting: in the case of `Cc1cc(S(=O)(=O)N(C)CC(=O)Nc2ccn3c(C(F)(F)F)ncc3c2)c2n[nH]cc2c1` [Example 130] it was 7.46; in that of `Cc1cc(S(=O)(=O)N(C)CC(=O)Nc2nc3ccccc3s2)c2n[nH]cc2c1` [Example 58], 7.50; in that of `Cc1cc(S(=O)(=O)N(C)CC(=O)Nc2ccc(N3CCOCC3)c(Cl)c2)c2[nH]ncc2c1` [Example 126], 7.72.
Regarding `Cc1cc(S(=O)(=O)N(C)CC(=O)Nc2cc3ccccc3cn2)c2n[nH]cc2c1` [Example 67], the negative logarithm of the IC50 (pIC50) is 7.43.
Turning to `CCN(CC(=O)Nc1ccc2c(c1)OCCN2C1COC1)S(=O)(=O)c1cc(C)cc2c[nH]nc12` [Example 155], the pIC50 is 7.61.
For the compound `Cc1cc(S(=O)(=O)N2CC[C@H]2C(=O)NC2CCCCC2)c2[nH]ncc2c1` [Example 70, (S)—N-cyclohexyl-1-((5-methyl-1H-indazol-7-yl)sulfonyl)azetidine-2-carboxamide], the negative logarithm of the IC50 (pIC50) was 6.55.
Still for that read-out and setting: in the case of `Cc1cc(S(=O)(=O)N2CCC(C(=O)Nc3ccc4c(c3)OCCN4C)C2)c2[nH]ncc2c1` (centres unmarked) [Example 120] it was 7.71; in that of `Cc1cc(S(=O)(=O)N(C)CC(=O)N[C@H]2CCCOC2)c2[nH]ncc2c1` [Example 112], 6.96.

Values taken from US20240132480A1, “INHIBITORS OF MYCOBACTERIUM TUBERCULOSIS LIPOAMIDE DEHYDROGENASE” (Cornell University, priority 2021, published 2024).
